From patent US20200172913A1, “PEPTIDES AND NANOPARTICLES FOR INTRACELLULAR DELIVERY OF VIRUS” (priority 2017, published 2020)
Where no end group is shown, it is not given here.

Columns and labels:
Format in all cases: cell-based, human
HepG2 and HCN2 cells [1] = test: AAV-6-GFP transduction with CPPs, statements for both cell lines; conditions: for impact on AAV-6 infectivity: 1 μM concentration, both cell lines; for share of the final improvement obtained at 200 μM: 10 μM concentration, AAV-6, both cell lines
Description: (§1) In this example different AAV serotypes including AAV 1, AAV2, AAV5, AAV6, AAV8 and AAV9 were tested against human hepatocytes (HepG2) and human neuronal cells (HCN2) in the presence or in the absence of CPPs including ADGN-103a, ADGN-103b, ADGN-100, ADGN-109, ADGN-106, PEP-1, PEP-2, CADY, and TAT-HA2.
(§2) AAV-1, AAV-2, AAV-5, and AAV-6 viruses encoding green fluorescent protein were obtained from Cell Biolabs Inc and AAV-8 from Vector Biolabs. Stock solutions of virus were obtained at 1χ10^13 GC/ml in PBS/0.01% and diluted 50-fold to 2×10^11 GC/ml before use.
(§3) AAV-1, AAV-2, AAV-5, and AAV6 encoding green fluorescent protein were used at low MOI of 500 (1-2×10^7 PFU) and AAV-8 at MOI of 1000 (2-4×10^7 PFU). HepG2 and HCN2 cells (1 10^6 cells per well) were cultured in a 24 well plate culture dish format. For MOI of 1000, 5 μl of AAV virus diluted solutions were preincubated in PBS with increasing concentration of CPPs ranging from 0.1 to 200 μM for 30 min. For MOI of 500, 2.5 μl of AAV virus diluted solutions were preincubated in PBS with increasing concentration of CPPs ranging from 0.1 to 200 μM for 30 min. 200 μl of AAV or CPP/AAV complex solutions were added to cultured cells (1×10^6 cells per well). Cells are treated with either free AAV or CPP/AAV complexes for 4 h. and then the medium is replaced with fresh medium.
(§4) Viral mediated transgene expression was monitored by flow cytomety 2 days post-infection in HepG2 and Human neuronal HCN2. The percentage of GFP expressing cells were detected by flow cytometry and the increase of AAV infectivity was calculated based on the number of GFP-positive cells. Results are reported in FIGS. 5A-5D, 6A-6D, 7A-7D, 8A-8D, and 9A-9D.

HepG2 cells [2] = test: AAV-6-GFP transduction with CPPs, flow cytometry; conditions: 200 μM CPP; for cells expressing GFP: AAV-6 MOI of 500, HepG2, 5% in the absence of CPP
Description: as §1, §2, §3, §4

HCN2 cells [3] = test: AAV-6-GFP transduction with CPPs, flow cytometry; conditions: for cells expressing GFP: 200 μM of CPP, AAV-6 MOI of 500, HCN2, 4% in the absence of CPP; for increase of AAV-6 efficiency: 200 μM CPP, MOI of 500, HCN2
Description: as §1, §2, §3, §4

HepG2 cells [4] = test: AAV-2-GFP transduction with CPPs, flow cytometry; conditions: 200 μM CPP; for cells expressing GFP: AAV-2 MOI of 500, HepG2, 4% in the absence of CPP; for increase of AAV-2 efficiency: MOI of 500, HepG2
Description: as §1, §2, §3, §4

HCN2 cells [5] = test: AAV-2-GFP transduction with CPPs, flow cytometry; conditions: 200 μM CPP; for cells expressing GFP: AAV-2 MOI of 500, HCN2, 4% in the absence of CPP; for increase of AAV-2 efficiency: MOI of 500, HCN2
Description: as §1, §2, §3, §4

HepG2 cells [6] = test: AAV-8-GFP transduction with CPPs, flow cytometry; conditions: 200 μM CPP, AAV-8 MOI of 1000, HepG2; 5% in the absence of CPP
Description: as §1, §2, §3, §4

HCN2 cells [7] = test: AAV-8-GFP transduction with CPPs, flow cytometry; conditions: 200 μM CPP, AAV-8 MOI of 1000, HCN2; 5% in the absence of CPP
Description: as §1, §2, §3, §4

HepG2 and HCN2 cells [8] = test: AAV-5-GFP transduction with CPPs, statements for both cell lines; conditions: for impact on AAV-5 infectivity: 1 μM concentration, both cell lines; for share of the final improvement obtained at 200 μM: 10 μM concentration, AAV-5, both cell lines
Description: as §1, §2, §3, §4

HepG2 cells [9] = test: AAV-5-GFP transduction with CPPs, flow cytometry; conditions: 200 μM CPP; for cells expressing GFP: AAV-5 MOI of 500, HepG2, 5% in the absence of CPP; for increase of AAV-5 efficiency: MOI of 500, HepG2
Description: as §1, §2, §3, §4

HCN2 cells [10] = test: AAV-5-GFP transduction with CPPs, flow cytometry; conditions: 200 μM CPP; for cells expressing GFP: AAV-5 MOI of 500, HCN2, 5% in the absence of CPP; for increase of AAV-5 efficiency: MOI of 500, HCN2
Description: as §1, §2, §3, §4

HepG2 and HCN2 cells [11] = test: AAV-2-GFP transduction with CPPs, statements for both cell lines; conditions: for impact on AAV-2 infectivity: 1 μM concentration, both cell lines; for share of the final improvement obtained with 200 μM: 10 μM concentration of CPP, AAV-2, both cell lines
Description: as §1, §2, §3, §4

HepG2 and HCN2 cells [12] = test: AAV-1-GFP transduction with CPPs, statements for both cell lines; conditions: for impact on AAV-1 infectivity: 1 μM concentration, both cell lines; for share of the final improvement obtained with 200 μM: 10 μM concentration of CPP, AAV-1, both cell lines
Description: as §1, §2, §3, §4

HepG2 and HCN2 cells [13] = test: AAV-8-GFP transduction with CPPs, statements for both cell lines; conditions: for impact on AAV-8 infectivity: 1 μM concentration, both cell lines; for share of the final improvement obtained at 200 μM: 10 μM concentration, AAV-8, both cell lines
Description: as §1, §2, §3, §4

HepG2 cells [14] = test: AAV-1-GFP transduction with CPPs, flow cytometry; conditions: 200 μM CPP; for cells expressing GFP: AAV-1 MOI of 500, HepG2, 5% in the absence of CPP; for increase of AAV-1 efficiency: MOI of 500, HepG2
Description: as §1, §2, §3, §4

HCN2 cells [15] = test: AAV-1-GFP transduction with CPPs, flow cytometry; conditions: 200 μM CPP; for cells expressing GFP: AAV-1 MOI of 500, HCN2, 5% in the absence of CPP; for increase of AAV-1 efficiency: MOI of 500, HCN2
Description: as §1, §2, §3, §4

Substance | impact on AAV-6 infectivity (HepG2 and HCN2 cells [1]) | share of the final improvement obtained at 200 μM (HepG2 and HCN2 cells [1]) | cells expressing GFP (HepG2 cells [2]) | cells expressing GFP (HCN2 cells [3]) | cells expressing GFP (HepG2 cells [4]) | cells expressing GFP (HCN2 cells [5]) | cells expressing GFP (HepG2 cells [6]) | cells expressing GFP (HCN2 cells [7]) | impact on AAV-5 infectivity (HepG2 and HCN2 cells [8]) | share of the final improvement obtained at 200 μM (HepG2 and HCN2 cells [8]) | cells expressing GFP (HepG2 cells [9]) | cells expressing GFP (HCN2 cells [10]) | impact on AAV-2 infectivity (HepG2 and HCN2 cells [11]) | share of the final improvement obtained with 200 μM (HepG2 and HCN2 cells [11]) | impact on AAV-1 infectivity (HepG2 and HCN2 cells [12]) | share of the final improvement obtained with 200 μM (HepG2 and HCN2 cells [12]) | impact on AAV-8 infectivity (HepG2 and HCN2 cells [13]) | share of the final improvement obtained at 200 μM (HepG2 and HCN2 cells [13]) | cells expressing GFP (HepG2 cells [14]) | cells expressing GFP (HCN2 cells [15]) | further results
βAKWFERWFREWPRKRR (not fully specified (residue 1, N-terminus); printed as βAKWFERWFREWPRKRR) [ADGN-103a] | significant impact | about 70% | 94% | 65% | 98% | 71% | 52% | 49% | significant impact | about 50% | 60% | 45% | significant impact | about 70% | significant impact | about 60% | significant impact | about 60% | 76% | 75% | –
βAKWRSAGWRWRLWRVRSWSR (not fully specified (residue 1, N-terminus); printed as βAKWRSAGWRWRLWRVRSWSR) [ADGN-100] | significant impact | about 70% | 59% | 48% | 57% | 59% | 26% | 23% | significant impact | about 50% | 39% | 22% | significant impact | about 70% | significant impact | about 60% | significant impact | about 60% | 50% | 52% | increase of AAV-6 efficiency (HepG2 cells [2]; MOI of 500, HepG2): 17 fold; increase of AAV-6 efficiency (HCN2 cells [3]): 15 fold; increase of AAV-2 efficiency (HepG2 cells [4]): 20 fold; increase of AAV-2 efficiency (HCN2 cells [5]): 15 fold; increase of AAV-5 efficiency (HepG2 cells [9]): 10 fold; increase of AAV-5 efficiency (HCN2 cells [10]): 5 fold; increase of AAV-1 efficiency (HepG2 cells [14]): 13 fold; increase of AAV-1 efficiency (HCN2 cells [15]): 12 fold
GLWRALWRLLRSLWRLLWKV [CADY, reference compound] | – | – | 29% | 18% | 23% | 20% | 15% | 12% | – | – | 11% | 10% | – | – | – | – | – | – | 27% | 22% | increase of AAV-6 efficiency (HCN2 cells [3]): 3 fold; increase of AAV-2 efficiency (HepG2 cells [4]): 5 fold; increase of AAV-2 efficiency (HCN2 cells [5]): 3 fold; increase of AAV-5 efficiency (HepG2 cells [9]): 3 fold; increase of AAV-5 efficiency (HCN2 cells [10]): 2 fold; increase of AAV-1 efficiency (HCN2 cells [15]): 3 fold
βALRWWLRWASRWFSRWAWWR (not fully specified (residue 1, N-terminus); printed as βALRWWLRWASRWFSRWAWWR) [ADGN-109] | significant impact | about 70% | 82% | 62% | 90% | 58% | 45% | 44% | significant impact | about 50% | 51% | 37% | significant impact | about 70% | significant impact | about 60% | significant impact | about 60% | 61% | 62% | increase of AAV-1 efficiency (HepG2 cells [14]): 16 fold; increase of AAV-1 efficiency (HCN2 cells [15]): 15 fold
